Literature values, collected in publication PMC7109127 (British Journal of Cancer, 2020).

How the values were obtained:
HCC [1] = conditions: first-line HCC; cited from earlier work
[2] = cited from earlier work
[3] = tested on: metastatic renal cell carcinoma; conditions: TIVO-1; cited from earlier work
[4] = TIVO-1; cited from earlier work
advanced HCC = tested on: advanced HCC; parameters: method as in PMID 18650514; conditions: cited from earlier work
[5] = first-line HCC; cited from earlier work
HCC [6] = tested on: HCC; parameters: method as in PMID 30665869, PMID 26095784; conditions: selective VEGFR-2 inhibition; cited from earlier work

Compound: COc1cc2nccc(Oc3ccc(NC(=O)NC4CC4)c(Cl)c3)c2cc1C(N)=O [lenvatinib]
- ORR (RECIST 1.1) (HCC [1]): 18.8%
- patients progression free at 6 months (HCC [1]): 55%

Compound: CNC(=O)c1cc(Oc2ccc(NC(=O)Nc3ccc(Cl)c(C(F)(F)F)c3)cc2)ccn1 [sorafenib]
- half-life [2]: 25 to 48 h
- overall response rate (ORR) [3]: 23.3%
- progression-free survival (PFS) [3]: 9.1 months
- diarrhoea incidence [4]: 33%
- hypertension incidence [4]: 34%
- palmar–plantar erythrodysesthesia incidence [4]: 54%
- objective responses (advanced HCC): ≤ 2%
- ORR (RECIST 1.1) (HCC [1]): 6.5%
- patients progression free at 6 months (HCC [1]): 35%
- Fatigue, all grades [5]: 25%
- Fatigue, grade 3–4 [5]: 4%

Compound: ramucirumab
- objective responses in HCC (HCC [6]): does not usually lead to objective responses
